Reference: patent publication US11286236B2, “Compound, agent and composition for the suppression of cancer growth” (Vector Vitale IP LLC, priority 2018, dated 2022)
Structures can show the parent of a compound that is named as a salt.

What was measured:
Type in all cases: cell-based
[1] = system: human Keratinocytes (HaCaT line); experiment: Metabolic activity of human keratinocytes (HaCaT line)
Protocol: In Vitro Effects of Experimental Compound ^85Rbe-E2 on metabolic activity of human Keratinocytes
(§1) Proliferative and metabolic activity of cells was determined by the colorimetric method.
(§2) The metabolic activity of the cells (i.e., the number of living cells) was assessed by MTT staining.
(§3) 24 hours after the last reagent, the cells were seeded at a concentration of 1×10^4 cells/well in wells of a 96-well plate in complete DMEM nutrient medium with 10% FBS and 40 μg/ml gentamicin. The cells were cultured in a humidified atmosphere at 5% CO2 and 37° C. for 24 hours. After 24 hours, various doses of experimental substances were added to the respective wells. The cells were incubated at 37° C. and 5% CO2 for an additional 72 hours.
(§4) Upon completion of the incubation with the preparations, the proliferative and metabolic activity of the cells in the experiment was evaluated by the colorimetric method by staining MTT cells:
(§5) 10 μl of the MTT solution (5 mg/ml of the dye in phosphate-buffered saline) was added to each well of the plate; the plate was incubated in a CO2 incubator at 37° C. for 3 hours. After that, the medium was removed from the wells, and the formed tetraformazan crystals were dissolved in 100 μl of dimethylsulfoxide.
(§6) When MTT was used, the results were evaluated using a multi-well spectrophotometer at an excitation wavelength of 540 nm. The percentage of viable cells was calculated by the formula: IR=(A540(experiment)/A540(control))×100%.

[2] = system: Normal Human Fibroblasts; experiment: Metabolic activity of normal human fibroblasts (MTT assay)
Protocol: In Vitro Assessment of the Effects of Experimental Compound ^85Rbe-E2 on metabolic Activity of Normal Human Fibroblasts (MTT Assay)
In Vitro Assessment of the Effects of E2+^85Rbe on Metabolic Activity of Normal Human Fibroblasts (MTT Assay)
as §1, §2, §3, §4, §5, §6

[3] = system: Mouse Bone Marrow Cells; experiment: Cytotoxic/cytostatic effects on mouse bone marrow cells (MTT assay)
Protocol: In Vitro Assessment of Cytotoxic/Cytostatic Effects of Experimental Compound ^85Rbe-E2 on Mouse Bone Marrow Cells
as §1, §2, §3, §4, §5, §6

Cc1ccc(S(=O)(=O)Nc2ccccc2NC(=O)c2ccccc2)cc1 [^85Rbe − E2, ^85Rb-enriched rubidium salt of N-benzoyl-N′-(4-toluenesulfonyl)-o-phenylenediamine] was tested, and the “Metabolic activity of cells, %” value ([1]; 8 ng/ml) was 114 ± 7.7%, the “Metabolic activity of cells, %” value ([1]; 16 ng/ml) was 98 ± 4% and the “Metabolic activity of cells, %” value ([1]; 31 ng/ml) was 97.8 ± 3.6%. The “Metabolic activity of cells, %” value ([1]; 62 ng/ml) was 90.7 ± 2.7%, the “Metabolic activity of cells, %” value ([1]; 0.13 μg/ml) was 95.3 ± 10.7% and the “Metabolic activity of cells, %” value ([1]; 0.25 μg/ml) was 100 ± 8.7%. For the same compound, the “Metabolic activity of cells, %” value ([1]; 0.5 μg/ml) was 90 ± 1%, the “Metabolic activity of cells, %” value ([1]; 1 μg/ml) was 0% and the “Metabolic activity of cells, %” value ([2]; 1.25 μg/ml) was 105.1 ± 2.3%. For the same compound, the “Metabolic activity of cells, %” value ([2]; 2.5 μg/ml) was 84.4 ± 4.6%, the “Metabolic activity of cells, %” value ([2]; 5 μg/ml) was 82.3 ± 3^ % and the “Metabolic activity of cells, %” value ([2]; 10 μg/ml) was 82.5 ± 1.3%. The “Metabolic activity of cells, %” value ([2]; 20 μg/ml) was 74 ± 1.3%, the “Metabolic activity of cells, %” value ([2]; 38 μg/ml) was 68.5 ± 1.8% and the “Metabolic activity of cells, %” value ([2]; 75 μg/ml) was 67.4 ± 4.7%. For the same compound, the “Metabolic activity of cells, %” value ([2]; 150 μg/ml) was 72.8 ± 2.1%, the “Metabolic activity of cells, %” value ([3]; 1.25 μg/ml) was 119.1 ± 0.2% and the “Metabolic activity of cells, %” value ([3]; 2.5 μg/ml) was 97.4 ± 1.4%. For the same compound, the “Metabolic activity of cells, %” value ([3]; 5 μg/ml) was 90.2 ± 3.3%, the “Metabolic activity of cells, %” value ([3]; 10 μg/ml) was 45 ± 4.7% and the “Metabolic activity of cells, %” value ([3]; 20 μg/ml) was 24.2 ± 0.8%. For the same compound, the “Metabolic activity of cells, %” value ([3]; 38 μg/ml) was 19.1 ± 1.9%, the “Metabolic activity of cells, %” value ([3]; 75 μg/ml) was 18.5 ± 0.4% and the “Metabolic activity of cells, %” value ([3]; 150 μg/ml) was 0%.
